Measurements as given in ChEMBL document CHEMBL3507680, “University of Dundee, Gates Library screen for HepG2 cell viability”.

assay: Human HepG2 cell viability assay in 384 well format; type: toxicity, cell-based; parameters: dose 125 nL, time 70.5 hour; cytotoxicity at 70.5 h: concentration not given beside the values; details: HepG2 cells, read-out: Inhibition

| Compound | cytotoxicity at 70.5 h [%] |
| --- | --- |
| N#CCC(=O)NCc1nnc2n1CCN(Cc1nccs1)C2 | -4.61 |
| CN1CCC2(CC1)CN(C)C(=O)C[C@@H]2C(F)(F)F | -2.18 |
| CCN(CC)[C@@H]1CN(Cc2ccc(C)o2)[C@@H]2CCCO[C@H]12 | -14.1 |
| N#CCC(=O)NCc1nnc2n1CCN(Cc1cccs1)C2 | -6.57 |
| O=C(NC1CCC1)C1CCC2(CN(C(=O)c3ccno3)C2)O1 (centres undefined) | -14 |
| Cc1ccc(C(=O)N2C[C@H]3CN(Cc4csc(C)n4)C[C@H]3C2)cn1 | 1.63 |
| Cc1cnc(C(=O)N2C[C@H]3CN(Cc4nccs4)C[C@H]3C2)cn1 | -5.82 |
| Cc1cccc(COC[C@H]2CC[C@H]3[C@H](CCN3Cc3ccco3)O2)n1 | -4.41 |
| CCCS(=O)(=O)N1CC[C@@H]2[C@@H]1CC(=O)N2Cc1csc(C)n1 | -4.88 |
| NC(Cc1nc(-c2ccccc2)no1)c1ccccc1 (centres undefined) | -6.63 |
| CC(C)N(C)C(=O)C1CCC2(CCNCC2)O1 (centres undefined) | 5.71 |
| CC(=O)N1CCC2(CC1)CN(C)CC[C@H]2C(F)(F)F | -4.42 |
| O=C(N[C@@H]1CN[C@H]2CCCO[C@H]21)c1cccnc1 | 1.62 |
| CN1CCN(Cc2cn3c(n2)CNCC3)CC1 | 23.1 |
| Cc1ccc(NC2COC3(CCN(Cc4ccn(C)n4)CC3)C2)nn1 (centres undefined) | -7.47 |
| Cc1noc([C@]23COC[C@H]2CN(Cc2cc(C)on2)C3)n1 | 47.3 |
| O=S(=O)(N[C@@H]1CCO[C@]2(CCN(CC3CCOCC3)C2)C1)C1CC1 | -8.9 |
| CC(=O)N1CCS(=O)(=O)[C@@H]2CCN(CC(C)C)CC[C@@H]21 | -6.52 |
| CCO[C@@H]1CN(S(=O)(=O)c2cn(C)cn2)[C@@H]2CCCO[C@@H]21 | -10.2 |
| CCC(=O)N1CCC2(CC1)CC(N1CCOCC1)c1cc(C)ccc12 (centres undefined) | -13.5 |
| CC(=O)NCc1nn(C)c2c1CN(Cc1ccsc1)C2 | -6.78 |
| Fc1cnc(N2CCCn3c(nnc3Cn3ccnc3)C2)nc1 | -4.74 |
| Cn1nc(Cn2cccn2)c2c1CN(Cc1ccsc1)C2 | -1.91 |
| Cn1nc(Cn2cccc2)c2c1CN(Cc1ccsc1)C2 | -9.77 |
| CCS(=O)(=O)N1CCC2(CC1)CCn1c(-c3cnn(C)c3)cnc12 | -13 |
| Cc1ncnc2c1CCN(c1ccccn1)CC2 | -14 |
| CCCS(=O)(=O)N1CCC2(CC1)CCn1c(-c3cnn(C)c3)cnc12 | -11.3 |

| Compound | cytotoxicity at 70.5 h [%] |
| --- | --- |
| Cn1cc(-c2cnc3n2CCC32CCN(S(=O)(=O)C3CC3)CC2)cn1 | -9.03 |
| O=C(NCC1CC1)c1nc2c(o1)CN(CC1CC1)C2 | -6.5 |
| CCN1CCCC12CCN(C(=O)c1ccsc1)CC2 | -7.76 |
| CCOCC1CN(C(=O)c2ccncn2)Cc2cnn(C)c21 (centres undefined) | -3.18 |
| CCOCC1c2c(cnn2C)CCN1C(=O)c1ccncn1 (centres undefined) | -14.6 |
| COCCN1CCO[C@H]2CN(C(=O)c3ccncc3F)C[C@H]21 | -9.68 |
| CCN(CC)[C@@H]1CN(C(=O)c2ccc(C#N)cc2)[C@@H]2CCCO[C@H]12 | -4.73 |
| CCN(CC)[C@@H]1CN(C(=O)c2ccnnc2)[C@@H]2CCCO[C@H]12 | -8.7 |
| O=C(NCC1CN(c2ncccn2)Cc2nccn2C1)c1cccnc1 (centres undefined) | -4.53 |
| O=S(=O)(C1CC1)N1C[C@@H]2CN(Cc3cccs3)CCO[C@@H]2C1 | 11.2 |
| CCS(=O)(=O)N1C[C@@H]2CN(Cc3cccs3)CCO[C@@H]2C1 | 6.04 |
| O=C(Nc1cnccn1)[C@H]1CC[C@@H]2[C@@H](CCN2Cc2ccccn2)O1 | -0.71 |
| Cc1oncc1C(=O)N1CCC2(CCN(Cc3cccnc3)C2=O)C1 (centres undefined) | -3.48 |
| Cn1ccc(C(=O)NC2CCC23CCN(Cc2cnn(C)c2)CC3)c1 (centres undefined) | -1.29 |
| CC(C)n1nc(CN2CCOCC2)c2c1CN(Cc1ccsc1)C2 | -4.8 |
| CC(C)NC(=O)c1ccc2nnc(C3CN(C)CCN3C)n2c1 (centres undefined) | -8.09 |
| CN1CCN(C)C(c2nnc3ccc(C(=O)N4CCOCC4)cn23)C1 (centres undefined) | -21.5 |
| Cc1ccc(CN2C[C@H](OCCN(C)C)[C@H]3OCCC[C@H]32)o1 | 3.05 |
| CC(C)N1[C@H](CN2CCCC2)C[C@@H]2CN(C(=O)c3ccoc3)CC[C@@H]21 | 1.33 |
| CN1CC(=O)N(c2cnn(C)c2)CC12CCN(CC1CC1)C2 (centres undefined) | -2.29 |
| c1cncc(O[C@@H]2CC[C@H]3[C@H]2OCCN3C2CCCC2)c1 | 3.46 |
| Cc1csc(CN2CC[C@H]3O[C@H](C(=O)Nc4cccnc4)CC[C@H]32)n1 | 8.96 |
| CC(C)CCN1CCc2c(C(=O)N(C)Cc3ccccn3)nn(C)c2C1 | -2.57 |
| CC(C)n1nc(CNc2ncccn2)c2c1CN(C)CC2 | -6 |
| CN1[C@H](CN2CCCC2)C[C@@H]2CN(Cc3ccoc3)CC[C@@H]21 | 4.1 |
| Cc1ccsc1CN1C[C@@H]2CN(Cc3cccnc3)CCO[C@@H]2C1 | 10.4 |
| Cc1nnc(N2CCCC3(CN(Cc4cccnc4)CCO3)C2)o1 (centres undefined) | -4.29 |
